Measurements as given in PubChem BioAssay AID1259407 (Chemical Carcinogenesis Research Information System (CCRIS), 2018).
Calls of active or inactive are those of the source. The rule behind the calls is not given here.

System: CCRIS mutagenicity, Ames/micronucleus/aberration tests
Experiment: CCRIS mutagenicity studies
[1] = Test System: AMES SALMONELLA TYPHIMURIUM, Strain/Indicator: TA98, Metabolic Activation: NONE, Method: PREINCUBATION
[2] = Test System: AMES SALMONELLA TYPHIMURIUM, Strain/Indicator: TA100, Metabolic Activation: NONE, Method: PREINCUBATION
[3] = Test System: AMES SALMONELLA TYPHIMURIUM, Strain/Indicator: TA1537, Metabolic Activation: NONE, Method: PREINCUBATION

Cc1cccc(O)c1
mutagenic call (End Point: IN VITRO CHROMOSOMAL ABERRATIONS, Test System: SYRIAN HAMSTER EMBRYO (SHE) CELLS, Metabolic Activation: NONE): active; positive (structural changes)
mutagenic call (End Point: IN VITRO CHROMOSOMAL ABERRATIONS, Test System: SYRIAN HAMSTER EMBRYO (SHE) CELLS, Metabolic Activation: RAT, LIVER, S-9): active; positive (structural changes)
mutagenic call [1]: inactive; negative
mutagenic call (Test System: AMES SALMONELLA TYPHIMURIUM, Strain/Indicator: TA98, Metabolic Activation: RAT, LIVER, S-9, SODIUM PHENOBARBITAL AND 5,6-BENZOFLAVONE, Method: PREINCUBATION): inactive; negative
mutagenic call [2]: inactive; negative
mutagenic call (Test System: AMES SALMONELLA TYPHIMURIUM, Strain/Indicator: TA100, Metabolic Activation: RAT, LIVER, S-9, SODIUM PHENOBARBITAL AND 5,6-BENZOFLAVONE, Method: PREINCUBATION): inactive; negative
mutagenic call (Test System: AMES SALMONELLA TYPHIMURIUM, Strain/Indicator: TA102, Metabolic Activation: NONE, Method: PREINCUBATION): inactive; negative
mutagenic call (Test System: AMES SALMONELLA TYPHIMURIUM, Strain/Indicator: TA102, Metabolic Activation: RAT, LIVER, S-9, SODIUM PHENOBARBITAL AND 5,6-BENZOFLAVONE, Method: PREINCUBATION): inactive; negative
mutagenic call (Test System: AMES SALMONELLA TYPHIMURIUM, Strain/Indicator: TA104, Metabolic Activation: NONE, Method: PREINCUBATION): inactive; negative
mutagenic call (Test System: AMES SALMONELLA TYPHIMURIUM, Strain/Indicator: TA104, Metabolic Activation: RAT, LIVER, S-9, SODIUM PHENOBARBITAL AND 5,6-BENZOFLAVONE, Method: PREINCUBATION): inactive; negative
mutagenic call (Test System: AMES SALMONELLA TYPHIMURIUM, Strain/Indicator: TA1535, Metabolic Activation: NONE, Method: PREINCUBATION): inactive; negative
mutagenic call (Test System: AMES SALMONELLA TYPHIMURIUM, Strain/Indicator: TA1535, Metabolic Activation: RAT, LIVER, S-9, SODIUM PHENOBARBITAL AND 5,6-BENZOFLAVONE, Method: PREINCUBATION): inactive; negative
mutagenic call [3]: inactive; negative
mutagenic call (Test System: AMES SALMONELLA TYPHIMURIUM, Strain/Indicator: TA1537, Metabolic Activation: RAT, LIVER, S-9, SODIUM PHENOBARBITAL AND 5,6-BENZOFLAVONE, Method: PREINCUBATION): inactive; negative
mutagenic call (Test System: Ames Salmonella typhimurium, Strain/Indicator: TA98, Metabolic Activation: Hamster, Liver, S-9, Aroclor 1254 (10%), Method: Preincubation): inactive; negative
mutagenic call (Test System: Ames Salmonella typhimurium, Strain/Indicator: TA98, Metabolic Activation: None, Method: Preincubation): inactive; negative
mutagenic call (Test System: Ames Salmonella typhimurium, Strain/Indicator: TA98, Metabolic Activation: Rat, Liver, S-9, Aroclor 1254 (10%), Method: Preincubation): inactive; negative
mutagenic call (Test System: Ames Salmonella typhimurium, Strain/Indicator: TA100, Metabolic Activation: Hamster, Liver, S-9, Aroclor 1254 (10%), Method: Preincubation): inactive; negative
mutagenic call (Test System: Ames Salmonella typhimurium, Strain/Indicator: TA100, Metabolic Activation: None, Method: Preincubation): inactive; negative
mutagenic call (Test System: Ames Salmonella typhimurium, Strain/Indicator: TA100, Metabolic Activation: Rat, Liver, S-9, Aroclor 1254 (10%), Method: Preincubation): inactive; negative
mutagenic call (Test System: Ames Salmonella typhimurium, Strain/Indicator: TA1535, Metabolic Activation: Hamster, Liver, S-9, Aroclor 1254 (10%), Method: Preincubation): inactive; negative
mutagenic call (Test System: Ames Salmonella typhimurium, Strain/Indicator: TA1535, Metabolic Activation: None, Method: Preincubation): inactive; negative
mutagenic call (Test System: Ames Salmonella typhimurium, Strain/Indicator: TA1535, Metabolic Activation: Rat, Liver, S-9, Aroclor 1254 (10%), Method: Preincubation): inactive; negative
mutagenic call (Test System: Ames Salmonella typhimurium, Strain/Indicator: TA1537, Metabolic Activation: Hamster, Liver, S-9, Aroclor 1254 (10%), Method: Preincubation): inactive; negative
mutagenic call (Test System: Ames Salmonella typhimurium, Strain/Indicator: TA1537, Metabolic Activation: None, Method: Preincubation): inactive; negative
mutagenic call (Test System: Ames Salmonella typhimurium, Strain/Indicator: TA1537, Metabolic Activation: Rat, Liver, S-9, Aroclor 1254 (10%), Method: Preincubation): inactive; negative
mutagenic call (Test System: E. COLI, Strain/Indicator: WP2UVRA/PKM101, Metabolic Activation: NONE, Method: PREINCUBATION): inactive; negative
mutagenic call (Test System: E. COLI, Strain/Indicator: WP2UVRA/PKM101, Metabolic Activation: RAT, LIVER, S-9, PHENOBARBITAL AND BETA-NAPHTHOFLAVONE, Method: PREINCUBATION): inactive; negative
mutagenic call (Test System: E. COLI, Strain/Indicator: WP2UVRA, Metabolic Activation: NONE, Method: PREINCUBATION): inactive; negative
mutagenic call (Test System: E. COLI, Strain/Indicator: WP2UVRA, Metabolic Activation: RAT, LIVER, S-9, PHENOBARBITAL AND BETA-NAPHTHOFLAVONE, Method: PREINCUBATION): inactive; negative

Cn1c(N=[N+]=[N-])nc2ncc(-c3ccccc3)cc21
mutagenic call (Test System: AMES SALMONELLA TYPHIMURIUM, Strain/Indicator: TA98(1,8-DNP6), Metabolic Activation: NONE, Method: PREINCUBATION): active; positive
mutagenic call (Test System: AMES SALMONELLA TYPHIMURIUM, Strain/Indicator: TA98(NR), Metabolic Activation: NONE, Method: PREINCUBATION): active; positive
mutagenic call [1]: active; positive
mutagenic call (Test System: AMES SALMONELLA TYPHIMURIUM, Strain/Indicator: YG1024, Metabolic Activation: NONE, Method: PREINCUBATION): active; positive

O=C(/C=C/c1ccc([N+](=O)[O-])cc1)c1ccccc1
mutagenic call (Test System: AMES SALMONELLA TYPHIMURIUM, Strain/Indicator: TA98, Metabolic Activation: HAMSTER, LIVER, S-9, AROCLOR 1254, Method: STANDARD PLATE): active; positive
mutagenic call (Test System: AMES SALMONELLA TYPHIMURIUM, Strain/Indicator: TA98, Metabolic Activation: NONE, Method: STANDARD PLATE): inactive; negative
mutagenic call (Test System: AMES SALMONELLA TYPHIMURIUM, Strain/Indicator: TA98, Metabolic Activation: RAT, LIVER, S-9, AROCLOR 1254, Method: STANDARD PLATE): active; positive
mutagenic call (Test System: AMES SALMONELLA TYPHIMURIUM, Strain/Indicator: TA100(1,8-DNP6), Metabolic Activation: NONE, Method: PREINCUBATION): inactive; negative
mutagenic call (Test System: AMES SALMONELLA TYPHIMURIUM, Strain/Indicator: TA100(1,8-DNP6), Metabolic Activation: RAT, LIVER, S-9, AROCLOR 1254, Method: PREINCUBATION): inactive; negative
mutagenic call (Test System: AMES SALMONELLA TYPHIMURIUM, Strain/Indicator: TA100(NR), Metabolic Activation: NONE, Method: PREINCUBATION): inactive; negative
mutagenic call (Test System: AMES SALMONELLA TYPHIMURIUM, Strain/Indicator: TA100(NR), Metabolic Activation: RAT, LIVER, S-9, AROCLOR 1254, Method: PREINCUBATION): inactive; negative
mutagenic call (Test System: AMES SALMONELLA TYPHIMURIUM, Strain/Indicator: TA100, Metabolic Activation: HAMSTER, LIVER, S-9, AROCLOR 1254, Method: STANDARD PLATE): active; positive
mutagenic call [2]: inactive; negative
mutagenic call (Test System: AMES SALMONELLA TYPHIMURIUM, Strain/Indicator: TA100, Metabolic Activation: NONE, Method: STANDARD PLATE): inactive; negative
mutagenic call (Test System: AMES SALMONELLA TYPHIMURIUM, Strain/Indicator: TA100, Metabolic Activation: RAT, LIVER, S-9, AROCLOR 1254, Method: STANDARD PLATE): active; positive
mutagenic call (Test System: AMES SALMONELLA TYPHIMURIUM, Strain/Indicator: TA100, Metabolic Activation: RAT, LIVER, S-9, AROCLOR, Method: PREINCUBATION): active; positive
mutagenic call (Test System: MOUSE LYMPHOMA, Strain/Indicator: L5178Y (TK+/TK-), Metabolic Activation: NONE, Method: SUSPENSION/PLATE): inactive; negative. reevaluation of results: negative
mutagenic call (Test System: MOUSE LYMPHOMA, Strain/Indicator: L5178Y (TK+/TK-), Metabolic Activation: RAT, LIVER, S-9, AROCLOR 1254, Method: SUSPENSION/PLATE): inactive; negative. reevaluation of results: negative

Nc1c2ccccc2nc2ccc(O)cc12
mutagenic call [3]: active; positive
